These results are taken from US7638496B2 (priority 2000, dated 2009).

Molecules are shown by their SMILES.

One assay deals with PTV (Adames strain). As to the kind of experiment: PTV infection in C57BL/6 mice in vivo. Conditions: 24 h post infection by PTV. On the procedure:
For 24 h post infection by PTV in vivo the minimum effective s.c. dose of 32 mg/kg for ribavirin and for viramidine was 96 mg/kg given s.c. b.i.d for 5 days. For 24 h post infection by PTV in vivo the minimum effective p.o. dose of 20 mg/kg for ribavirin and for viramidine was 40 mg/kg given p.o. b.i.d for 5 days.

For the next assay, the system named is IMP dehydrogenease. To be noted: cited from earlier work.

Take `NC(=O)c1ncn([C@@H]2O[C@H](CO)[C@@H](O)[C@H]2O)n1` [Ribavirin, 1-β-D-ribofuranosyl-1,2,4-triazole-3-carboxamide]: the “minimum effective p.o. dose” value in the assay on PTV (Adames strain) (p.o. b.i.d for 5 days) was found to be 20 mg/kg. Besides, the “minimum effective s.c. dose” value in the assay with PTV (Adames strain) (s.c. b.i.d for 5 days) was 32 mg/kg. Further, in the assay with IMP dehydrogenease, the IMP dehydrogenase inhibition entry was “inhibitor of IMP dehydrogenease”.
